A value given as a limit tells only on which side of the number the result lay.

A short description of data set [1]: Cell viability after hydrogen peroxide (Cell Counting Kit-8), diabetic fibroblasts. Type of data set: cell-based, rat. To be noted: female, Coto Kakizaki (diabetic), rat, primary dermal fibroblasts from diabetic rats (DFs), DFs, 16 hours, read-out: loss in cell viability. An excerpt: To determine the effect of α-lipoic acid on isolated cells from normal and diabetic rats, primary rat fibroblasts were derived from dorsal skin biopsies performed on four diabetic Coto Kakizaki rats (DFs) and four age-matched (12-14 months) and sex-matched (female) Wistar control rats (CFs). After sterilization in povidine solution, the rat skin was washed in sterile water and rinsed in 70% ethanol in phosphate-buffered saline (PBS). The epidermis and dermis were separated following overnight incubation in 0.25% Trypsin/EDTA at 4° C. Samples were washed, diced and digested for thirty minutes at 37° C. in collagenase type I (250 U/ml) dissolved in Dulbecco's modified Eagle medium (DMEM; Invitrogen) containing penicillin (100 U/ml), 2 mM L-glutamine and 26 mM HEPES. After collagenase treatment, the cells were dislodged, centrifuged and resuspended in medium supplemented with 10% fetal bovine serum. The cells were grown under standard conditions, and the medium was changed every three to four days. Control and diabetic fibroblasts were grown under normo-glycemic conditions (5.5 mM glucose) and used in experiments at passage 3 to 5.
Fibroblasts were seeded at 1×10^4 cells/well on a 96-well plate. After a 24 hour incubation period, the cells were exposed to various concentrations of HP in serum-free medium at 37° C. for 2 hours [lactate dehydrogenase (LDH), a marker for necrotic cell death], or for 16 hours (cell viability). Quantification of cell viability was assessed using a Cell Counting Kit-8 (Dojindo, Kumamoto, Japan). The values obtained were normalized to the vehicle-treated cells. To measure the rate of necrotic cell death, an LDH release assay was performed using a CytoTox-ONE Homogeneous Membrane Integrity Assay kit (Promega). Expression of Nrf2 was inhibited by small-interfering RNA (siRNA) oligonucleotides. The sequences were designed and synthesized by Qiagen. The best silencing efficiency was obtained by incubating 2.0×10^5 cells/well in a 6-well plate with complexes formed by 5 nM siRNA (1 μl) and 9 μL of HiPerfect transfection reagent (Qiagen) dissolved in 90 μl medium, according to the manufacturer's instructions. The transfection was achieved by adding 0.9 ml of medium to the seeded cells followed by 100 μl of siRNA/HiPerfect complex. Knock-out efficiency was verified by real-time PCR and Western blot. Twenty-four hours later, 1 ml of fresh medium was added; 48 hr after transfection the cells were exposed to either vehicle or lipoic acid at a concentration of 500 μM.

A further data set deals with rat aortic rings. The data set can be described thus: Acetylcholine-induced endothelium dependent relaxation of aortic rings in organ chamber. Type of data set: in vivo. The settings on record: diabetic arteries; apocynin 3×10^−4 mol/l, Tiron 10 mmol/l. As for the experimental part: In the experiments, with regard to the determination of endothelium dependent relaxation (EDR) in the aorta, EDR in response to various concentrations of acetylcholine (Ach) (10^−9 to 10^−6 mol/l) was assessed in norepinephrine (10^−7 mol/l) preconstructed rat aortic rings using an organ chamber bath. The effects of the NAD(P)H oxidase inhibitor apocynin (3×10^−4 mol/l) and the O2^− scavenger Tiron (10 mmol/l) on Ach-induced responses of diabetic arteries were also considered.

A further data set relates to aortic tissue. The data set can be described thus: Aortic superoxide production, lucigenin-enhanced chemiluminescence. In kind it is in vivo, rat. To be noted: inhibitor added 60 min before; diphenylene iodonium 0.1 mM, apocynin 3 mM. The method, then: In the study, with regard to measurement of vascular superoxide anion formation, O2^− concentration in aortic tissue was determined using a lucigenin-enhanced chemiluminescence method, and the resulting data were further confirmed by a cytochrome c-based technique. Segments of the thoracic aorta were placed into 2 ml Krebs-Henseleit buffer (KHB, pH 7.4), and prewarmed to 37° C. for one hour. Immediately before measurement, rings were transferred to scintillation vials containing KHB with 5 μmol/L lucigenin and the O2^− generated chemiluminescence was recorded for five minutes with a scintillation counter. The amount of O2^− produced was quantified using a standard curve of O2^− generation by xanthine/xanthine oxidase and the data are expressed as nmol per min, per mg, of wet weight. In some experiments, vessels were denuded of endothelium by gentle rubbing of the luminal surface, whereas in others, N^ω-nitro-L-arginine methyl ester (L-NAME) 0.1 mM, diphenylene iodonium 0.1 mM, or apocynin 3 mM were added 60 min before determining O2^− generation.

The subject of a further data set is NAD(P)H oxidase. The data set can be described thus: NAD(P)H oxidase activity in aortic homogenates (lucigenin photoemission). To be noted: inhibitor added to tissue homogenate. In kind it is biochemical, rat.
Another data set concerns cultured arteries. Description: Cultured arteries of non-diabetic control animals exposed to TNF-α. More on the design: species or system rat. To be noted: arteries of non-diabetic control animals exposed to TNF-α.

Description for NAD(P)H oxidase: Determination of NAD(P)H oxidase activity in the aorta was determined based on superoxide induced lucigenin photoemission. Enzyme assays were carried out in a final volume of 1 ml. containing (in mM) 50 phosphate buffer; pH 7.0, 1 EGTA, 150 sucrose, 0.5 lucigenin, 0.1 NAD(P)H and tissue homogenate. Enzyme reactions were initiated with the addition of lucigenin. Photoemission, expressed in terms of relative light units (RLU), was measured every 5 min. using a luminometer. All assays were carried out in the dark at room temperature.

Consider `OO` [HP, hydrogen peroxide], for which the cytotoxicity at 16 h, 37.5 uM in data set [1] (37.5 uM HP) was 17%. Besides, the cytotoxicity at 16 h, 50 uM in data set [1] (50 uM HP) was 55%. The cytotoxicity at 16 h, 75 uM in data set [1] (75 uM HP) was 78%.

For `COc1cc(C(C)=O)ccc1O` [apocynin], the “Ach-induced relaxation in diabetic arteries” value in the data set with rat aortic rings was “improved”. Also, in the data set with aortic tissue, the “O2− production of aorta of GK diabetic rats” value is reported as “inhibited”.

In the case of `c1ccc2c(c1)[I+]c1ccccc1-2` [diphenyleneiodonium], the “O2− production of aorta of GK diabetic rats” value in the data set on aortic tissue is listed as “inhibited”. For the same molecule, the “reduction of production of O2− in the homogenate” value in the data set on NAD(P)H oxidase is listed as over 95%.

As to `O=S(=O)(O)c1cc(O)c(O)c(S(=O)(=O)O)c1` [tiron, Tiron], the “Ach-induced relaxation in diabetic arteries” value in the data set on rat aortic rings is “improved”.

Turning to TNF-α, in the data set with cultured arteries, the Ach-induced vasorelaxation entry is reported as “impaired”, the “caspase 3/7 activity” value is reported as “elevated”, the “levels of DNA fragmentation” value is reported as “elevated” and the “rate of O2− generation” value is “elevated”.
